What was measured:
[1] = tested on: Phakopsora pachyrhizi (the causal agent of Asian soybean rust); test: Test A: preventive spray on soybean seedlings, Asian soybean rust, visual disease rating; type: in vivo; details: soybean seedlings
Procedure, shortened: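 Preventive test: soybean seedlings received a run-off spray of compound suspended at the set ppm in 50/50 acetone/water plus 250 ppm PEG400, and one day later a P. pachyrhizi spore inoculum. Visual scoring (0 none to 100 full disease control) followed 24 h saturated incubation and 8 days' growth chamber, both at 22° C.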

[2] = tested on: Puccinia recondita f. sp. tritici (the causal agent of wheat leaf rust); test: Test C: preventive spray on wheat seedlings, wheat leaf rust, visual disease rating; type: in vivo; details: wheat seedlings
Procedure, shortened: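 Wheat seedlings sprayed to run-off with compound in acetone/water (50/50) with 250 ppm PEG400, then inoculated with spores the following day. After 24 h saturated humidity at 20° C. and 6 days in growth chamber at 20° C., disease rated visually as % control relative to untreated controls.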

[3] = test suspension 10 ppm, 100 = 100% disease control, 0 = no control
[4] = 10 ppm test suspension, 100 = 100% disease control, 0 = no control
[5] = 50 ppm test suspension, 100 = 100% disease control, 0 = no control

Structure (SMILES) | Test A disease control rating [1, 3] [%] | Test C disease control rating ([2]; test suspension 10 ppm) [%] | Test A disease control rating [1, 4] [%] | Test C disease control rating [2, 4] [%] | further results
CCCOC(=O)c1cnn(Cc2cc(-c3noc(C(F)(F)F)n3)cs2)c1 [compound 250] | 100 | 74 | – | – | –
CCON=C(C)COC(=O)c1cnn(Cc2ccc(-c3noc(C(F)(F)F)n3)cc2)c1 [compound 221] | 100 | 95 | – | – | –
FC(F)(F)c1nc(-c2ccc(Cn3ncc4cnc(Cl)nc43)cc2)no1 [compound 152] | 100 | 100 | – | – | –
O=C(OCc1ccccc1)c1cnn(Cc2ccc(-c3noc(C(F)(F)F)n3)cc2)c1 [compound 412] | – | – | 100 | 100 | –
Cc1c2cc(Br)ccc2nn1Cc1ccc(-c2noc(C(F)(F)F)n2)cc1 [compound 52] | 99 | 80 | – | – | –
FC(F)(F)c1nc(-c2ccc(Cn3cc4c(Cl)cc(Br)cc4n3)cc2)no1 [compound 54] | 99 | 68 | – | – | –
C[Si](C)(C)C#CCOC(=O)c1cnn(Cc2ccc(-c3noc(C(F)(F)F)n3)cc2)c1 [compound 348] | 100 | 96 | – | – | –
CCOC(CC(=O)c1cnn(Cc2ccc(-c3noc(C(F)(F)F)n3)cc2)c1)OCC [compound 391] | – | – | 100 | 100 | –
C[Si](C)(C)CCNC(=O)c1coc(Cc2ccc(-c3noc(C(F)(F)F)n3)cc2)n1 [compound 206] | 98 | 68 | – | – | –
CCOC(=O)C1(Cc2ccc(-c3noc(C(F)(F)F)n3)cc2)CCCNC1=O (stereo not shown) [compound 432] | – | – | – | – | Test A disease control rating [1, 5]: 100%; Test C disease control rating [2, 5]: 92%
Cc1cccc2nn(Cc3ccc(-c4noc(C(F)(F)F)n4)cc3)cc12 [compound 102] | 100 | 99 | – | – | –
O=C(NC1CC1)c1cnn(Cc2ccc(-c3noc(C(F)(F)F)n3)cc2)c1 [compound 69] | 100 | 100 | – | – | –
O=[N+]([O-])c1ccc2c(c1)c(Br)nn2Cc1ccc(-c2noc(C(F)(F)F)n2)cc1 [compound 30] | 25 | 0 | – | – | –
Cc1cc(C(=O)NCC#N)nn1Cc1ccc(-c2noc(C(F)(F)F)n2)cc1 [compound 181] | 100 | 100 | – | – | –
CCN(CC)C(=O)C1=NOC(Cc2ccc(-c3noc(C(F)(F)F)n3)s2)C1 (stereo not shown) [compound 430] | – | – | – | – | Test A disease control rating [1, 5]: 100%; Test C disease control rating [2, 5]: 100%
COC(=O)C=CCOC(=O)c1cnn(Cc2ccc(-c3noc(C(F)(F)F)n3)cc2)c1 [compound 275] | 100 | 100 | – | – | –
FC(F)(F)c1nc(-c2ccc(CN3CCc4ccccc4C3)cc2)no1 [compound 351] | 92 | 67 | – | – | –
O=C(NCc1cccnc1)c1cnn(Cc2ccc(-c3noc(C(F)(F)F)n3)cc2)c1 [compound 483] | – | – | 100 | 54 | –
CCOC(=O)c1cc(C)nn1Cc1ccc(-c2noc(C(F)(F)F)n2)cc1 [compound 109] | – | – | – | – | Test A disease control rating ([1]; test suspension 50 ppm): 100%; Test C disease control rating ([2]; test suspension 50 ppm): 77%
FC(F)(F)c1nc(-c2ccc(CCCn3ccc(-c4ccccc4)n3)cc2)no1 [compound 360] | 100 | 68 | – | – | –
O=C(O)C1=NOC(Cc2ccc(-c3noc(C(F)(F)F)n3)s2)C1 (stereo not shown) [compound 367] | – | – | – | – | Test A disease control rating ([1]; test suspension 50 ppm): 96%; Test C disease control rating ([2]; test suspension 50 ppm): 67%
FC(F)(F)c1nc(-c2ccc(Cn3ccc4ccncc43)cc2)no1 [compound 135] | 96 | 0 | – | – | –
NC(=O)C1COC(Cc2ccc(-c3noc(C(F)(F)F)n3)cc2)=N1 (stereo not shown) [Compound 75, 4,5-dihydro-2-[[4-[5-(trifluoromethyl)-1,2,4-oxadiazol-3-yl]phenyl]methyl]-4-oxazolecarboxamide] | – | – | – | – | pest or weed control at 10 µg/mL ([1]; Phakopsora pachyrhizi, 216 h, test suspension 10 ppm, 100 = 100% disease control, 0 = no control, read-out: Test A disease control rating): 100%; pest or weed control at 10 µg/mL ([2]; Puccinia recondita, 168 h, test suspension 10 ppm, read-out: Test C disease control rating): 68%
C#CCOC(=O)c1cnn(Cc2ccc(-c3noc(C(F)(F)F)n3)s2)c1 [compound 190] | 100 | 100 | – | – | –
FC(F)(F)c1nc(-c2ccc(Cn3nc(Br)c4ccccc43)cc2)no1 [compound 112] | 92 | 0 | – | – | –
CCOC(=O)c1cnn(Cc2cc(OC)c(-c3noc(C(F)(F)F)n3)s2)c1 [compound 336] | 0 | 0 | – | – | –
FC(F)(F)c1nc(-c2ccc(Cn3cc4c(I)ccnc4n3)cc2)no1 [compound 445] | – | – | 100 | 99 | –

Structure (SMILES) | Test A disease control rating [1, 3] [%] | Test C disease control rating ([2]; test suspension 10 ppm) [%] | Test A disease control rating [1, 4] [%] | Test C disease control rating [2, 4] [%] | further results
CCOC(=O)c1cnn(CCCc2ccc(-c3noc(C(F)(F)F)n3)cc2)c1 [compound 428] | – | – | – | – | Test A disease control rating [1, 5]: 100%; Test C disease control rating [2, 5]: 100%
CCOC(=O)c1cn(Cc2ccc(-c3noc(C(F)(F)F)n3)cc2)c(=O)cn1 [compound 419] | – | – | 96 | 99 | –
Nc1ccc2c(cnn2Cc2ccc(-c3noc(C(F)(F)F)n3)cc2)c1 [compound 115] | 98 | 95 | – | – | –
C#CCON=Cc1cnn(Cc2ccc(-c3noc(C(F)(F)F)n3)cc2)c1 [compound 387] | – | – | 100 | 99 | –
N#CC1(NC(=O)c2cnn(Cc3ccc(-c4noc(C(F)(F)F)n4)cc3)c2)CC1 [compound 173] | 100 | 96 | – | – | –
CN(C)C(=O)c1cnn(Cc2ccc(-c3noc(C(F)(F)F)n3)cc2)c1 [compound 62] | 100 | 100 | – | – | –
FC(F)(F)c1nc(-c2ccc(Cn3ncc4ncccc43)cc2)no1 [compound 408] | – | – | 100 | 100 | –
Cc1cccc2cnn(Cc3ccc(-c4noc(C(F)(F)F)n4)cc3)c12 [compound 101] | – | – | – | – | Test A disease control rating ([1]; test suspension 50 ppm): 100%; Test C disease control rating ([2]; test suspension 50 ppm): 100%
COC(=O)c1cccc2cn(Cc3ccc(-c4noc(C(F)(F)F)n4)cc3)nc12 [compound 50] | 13 | 28 | – | – | –
CCCCCOC(=O)c1cnn(Cc2ccc(-c3noc(C(F)(F)F)n3)cc2)c1 [compound 447] | – | – | 100 | 100 | –
CCOC(=O)c1cnn(COCc2ccc(-c3noc(C(F)(F)F)n3)cc2)c1 [compound 362] | – | – | – | – | Test A disease control rating ([1]; test suspension 50 ppm): 100%; Test C disease control rating ([2]; test suspension 50 ppm): 100%
COC(=O)c1ccc2cn(Cc3ccc(-c4noc(C(F)(F)F)n4)cc3)nc2c1 [compound 42] | 100 | 92 | – | – | –
CCCCON=C(C)COC(=O)c1cnn(Cc2ccc(-c3noc(C(F)(F)F)n3)cc2)c1 [compound 219] | 100 | 86 | – | – | –
O=C(Nc1ccccc1)c1cnn(Cc2ccc(-c3noc(C(F)(F)F)n3)cc2)c1 [compound 485] | – | – | 100 | 99 | –
COC(=O)c1nccn(Cc2ccc(-c3noc(C(F)(F)F)n3)cc2)c1=O [compound 423] | – | – | 86 | 80 | –
CCOC(=O)c1cnn(Cc2ccc(-c3noc(C(F)(F)F)n3)cn2)c1 [compound 424] | – | – | 100 | 96 | –
COc1ccn(Cc2ccc(-c3noc(C(F)(F)F)n3)cc2)c(=O)c1 [compound 421] | – | – | 100 | 100 | –
CC(C)CCOC(=O)c1cnn(Cc2ccc(-c3noc(C(F)(F)F)n3)cc2)c1 [compound 480] | – | – | 100 | 98 | –
CS(=O)(=O)Nc1cnn(Cc2ccc(-c3noc(C(F)(F)F)n3)cc2)c1 [compound 442] | – | – | 44 | 0 | –
Cc1cc2nn(Cc3ccc(-c4noc(C(F)(F)F)n4)cc3)cc2cc1Br [compound 33] | 100 | 68 | – | – | –
CN(CC#N)C(=O)c1cnn(Cc2ccc(-c3noc(C(F)(F)F)n3)cc2)c1 [compound 379] | – | – | 100 | 97 | –
CCNC(=O)C1=NOC(Cc2ccc(-c3noc(C(F)(F)F)n3)s2)C1 (stereo not shown) [compound 369] | – | – | – | – | Test A disease control rating ([1]; test suspension 50 ppm): 100%; Test C disease control rating ([2]; test suspension 50 ppm): 100%
CCOC(=O)c1cncn(Cc2ccc(-c3noc(C(F)(F)F)n3)cc2)c1=O [compound 418] | – | – | 100 | 99 | –
CCOC(=O)c1cnn(C(C)c2ccc(-c3noc(C(F)(F)F)n3)s2)c1 (stereo not shown) [compound 246] | 100 | 100 | – | – | –
CCOC(=O)c1nn(Cc2ccc(-c3noc(C(F)(F)F)n3)cc2)c(C(=O)OCC)c1C(=O)OCC [compound 174] | 85 | 91 | – | – | –
CCOC(=O)Nc1cnn(Cc2ccc(-c3noc(C(F)(F)F)n3)cc2)c1 [compound 443] | – | – | 100 | 74 | –

Source: patent publication US20240090503A1, “FUNGICIDAL OXADIAZOLES AND THEIR MIXTURES” (FMC CORPORATION, priority 2020, published 2024)
